# From PubChem BioAssay (NCI)
#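 Results reflect a 48-hour exposure of cells in 96-well plates to compound at five concentrations. GI50 = concentration required for 50% inhibition of growth. At the TGI there is no net growth.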
# Experiments:
# Assay in all cases: NCI tumour cell line growth inhibition, 48 h
# [1] = test system: SK-MEL-2 melanoma
# [2] = test system: EKVX NSCLC
# [3] = test system: NCI-H23 lung
# [4] = test system: SK-MEL-5 melanoma
# [5] = test system: UO-31 renal
# [6] = test system: OVCAR-5 ovarian
# [7] = test system: MDA-MB-435
# [8] = test system: NCI-H226 lung
# [9] = test system: MDA-MB-231 breast
# [10] = test system: DU-145 prostate
# [11] = test system: SNB-19 CNS
# [12] = test system: NCI-H522 lung
# [13] = test system: A549 NSCLC
# [14] = test system: COLO 205 colon
# [15] = test system: HCT-15 colon
# [16] = test system: SW-620 colon
# [17] = test system: UACC-62 melanoma
# [18] = test system: SNB-75 CNS
# [19] = test system: U251 CNS
# [20] = test system: HT29 colon
# [21] = test system: T-47D breast
# [22] = test system: KM12 colon
# [23] = test system: RPMI-8226 leukemia
# [24] = test system: MDA-MB-468 breast
# [25] = test system: HOP-62 NSCLC
# [26] = test system: HL-60(TB) leukemia
# [27] = test system: MCF7 breast
# [28] = test system: HS 578T breast
# [29] = test system: UACC-257 melanoma
smiles,measurement,setting,value
Cn1cc(-c2cc(N)n3nc(-c4cn(C)c5ncccc45)cc3n2)c2cccnc21,GI50,[1],> 100 µM
same,TGI,[1],> 100 µM
same,GI50,[2],15.2 µM
same,TGI,[2],30.2 µM
same,GI50,[3],17.4 µM
same,TGI,[3],32 µM
same,GI50,[4],14.4 µM
same,TGI,[4],28.2 µM
same,GI50,[5],15.2 µM
same,TGI,[5],32.1 µM
same,GI50,[6],15.1 µM
same,TGI,[6],28.4 µM
same,GI50,[7],29.4 µM
same,TGI,[7],> 100 µM
same,GI50,[8],17.8 µM
same,TGI,[8],42.9 µM
same,GI50,[9],13.7 µM
same,TGI,[9],26.5 µM
same,GI50,[10],14.6 µM
same,TGI,[10],28.5 µM
same,GI50,[11],18.6 µM
same,TGI,[11],38.4 µM
same,GI50,[12],32.1 µM
same,TGI,[12],> 100 µM
same,GI50,[13],15.7 µM
same,TGI,[13],42 µM
same,GI50,[14],10.3 µM
same,TGI,[14],23.9 µM
same,GI50,[15],16.4 µM
same,TGI,[15],31.2 µM
same,GI50,[16],13.3 µM
same,TGI,[16],29.7 µM
same,GI50,[17],29 µM
same,TGI,[17],> 100 µM
same,GI50,[18],11.1 µM
same,TGI,[18],30.6 µM
same,GI50,[19],19.8 µM
same,TGI,[19],46.4 µM
same,GI50,[20],14.9 µM
same,TGI,[20],31.5 µM
same,GI50,[21],42.7 µM
same,TGI,[21],> 100 µM
same,GI50,[22],16.6 µM
same,TGI,[22],32.3 µM
same,GI50,[23],12.9 µM
same,TGI,[23],38.4 µM
same,GI50,[24],13.7 µM
same,TGI,[24],26.7 µM
same,GI50,[25],18 µM
same,TGI,[25],36.4 µM
same,GI50,[26],14.8 µM
same,TGI,[26],37 µM
same,GI50,[27],18.7 µM
same,TGI,[27],41.6 µM
same,GI50,[28],18.7 µM
same,TGI,[28],73.4 µM
same,GI50,[29],29.2 µM
same,TGI,[29],> 100 µM
